In PubChem BioAssay (NCI) one finds TGI data, which are given here for 17 compounds.

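Growth conditions: 96-well plates. Treatment: test compound, 48 hours, 5 concentrations. Analysis: linear interpolation between bracketing concentrations; unreached endpoints set to highest concentration. Definition used: TGI = concentration required for complete inhibition of growth.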

For one experiment, the system named is CAKI-1 renal. The experiment in a line: growth of human tumour cells (NCI), 48 h.
As for `Oc1c(N2CCCCC2)cc(-c2cc(N3CCCCC3)c(O)c3ccccc23)c2ccccc12`, the TGI was greater than 100 µM.
On the same count and under the same terms, the same measure for `O=c1cc(Nc2cccc(O)c2)[nH]c(=O)[nH]1`: greater than 100 µM; for `NCCOc1cccc(C2(N3CCCCC3)CCCCC2)c1`: greater than 100 µM.
On to `COC(=O)[C@@]12OC[C@]34C([C@@H](O)C1O)[C@@]1(C)CC(=O)C(OC(=O)CC(C)C(F)(F)F)=C(C)C1C[C@H]3OC(=O)[C@H](O)[C@H]42` (stereo partly drawn), for which the TGI is greater than 62.5 µM.
On the same count and under the same terms, then `CCCCCCCCCCCCCCCCCCNc1ccn(C2OC(COP(=O)(O)OCC3OC(n4ccc(N)nc4=O)C(O)C3O)C(O)C2O)c(=O)n1` (stereo not drawn), with greater than 100 µM; and `CCOc1cnc(C(O)(c2ccccc2)c2ccccc2)o1`, with greater than 100 µM.
In turn, `CC(=O)c1ccc(Nc2c3c(nc4ccccc24)CCCC3)cc1` registered a TGI greater than 44 µM.
`S=C1Cc2c(-c3ccccc3)cc(-c3cccc(Cl)c3)nc2-c2ccccc2N1` gave a TGI of 9.23 µM.
`N#Cc1c(NC(=O)C(F)(F)F)sc2c3c(=O)c4ccccc4c(=O)c=3oc3ccccc3c12`: the TGI was determined as 31.4 µM.
Compound `Cc1c(C)c2c(c(N)c1C#N)C(=O)N(Cc1ccc(S(N)(=O)=O)cc1)C2=O` yielded a TGI greater than 100 µM.
As for `CN(NC1=NCCO1)c1ccc2ccccc2c1`, the TGI is greater than 100 µM.
Still for that read-out and setting: then `COC(=O)/C=C/c1ccc(OP(=O)(O)O)c(OC)c1`, with greater than 100 µM.
Consider `COc1cc2nc(Cl)nc(NS(=O)(=O)c3cc4ccccc4s3)c2cc1OC`, for which the TGI is greater than 100 µM.
Consider `COC(=O)/C=C(\C(=O)OC)c1cc(C)c2cc(C(C)C)ccc(C)c1-2`, for which the TGI was greater than 100 µM.
On the same count and under the same terms, then `C[C@@H](CC(=O)OCc1ccccc1)OC1OC(COC(=O)C(C)(C)C)C(OC(=O)C(C)(C)C)C(OC(=O)C(C)(C)C)C1OC(=O)C(C)(C)C` (stereo partly drawn), with greater than 100 µM; and `CC(C)(C)OC(=O)N(CCCCNC(=O)C(F)(F)F)CCCNC(=O)C(F)(F)F`, with greater than 100 µM.
The same measure, in the same setting: the same measure for `C=C1CC[C@@H](CCC2CCC3(OC2)O[C@]2(O)CC[C@@]3(C)OC2(C)C)C(C)(C)[C@H]1C/C=C1\CCOC1=O` (stereo partly drawn): greater than 88.1 µM.

A further experiment deals with NCI-H460 lung. The experiment can be described thus: growth of human tumour cells (NCI), 48 h.
Regarding `Oc1c(N2CCCCC2)cc(-c2cc(N3CCCCC3)c(O)c3ccccc23)c2ccccc12`, the TGI was greater than 100 µM.
The compound `O=c1cc(Nc2cccc(O)c2)[nH]c(=O)[nH]1` gave a TGI greater than 100 µM.
Regarding `NCCOc1cccc(C2(N3CCCCC3)CCCCC2)c1`, the TGI was greater than 100 µM.
Consider `COC(=O)[C@@]12OC[C@]34C([C@@H](O)C1O)[C@@]1(C)CC(=O)C(OC(=O)CC(C)C(F)(F)F)=C(C)C1C[C@H]3OC(=O)[C@H](O)[C@H]42` (stereo partly drawn), for which the TGI is greater than 62.5 µM.
For `CCCCCCCCCCCCCCCCCCNc1ccn(C2OC(COP(=O)(O)OCC3OC(n4ccc(N)nc4=O)C(O)C3O)C(O)C2O)c(=O)n1` (stereo not drawn), the TGI was greater than 78.8 µM.
`CCOc1cnc(C(O)(c2ccccc2)c2ccccc2)o1` gave a TGI greater than 100 µM.
Same read-out and setting: the same measure for `CC(=O)c1ccc(Nc2c3c(nc4ccccc24)CCCC3)cc1`: greater than 66.8 µM.
In the case of `S=C1Cc2c(-c3ccccc3)cc(-c3cccc(Cl)c3)nc2-c2ccccc2N1`, the TGI is 7.11 µM.
The same measure, in the same setting: then `N#Cc1c(NC(=O)C(F)(F)F)sc2c3c(=O)c4ccccc4c(=O)c=3oc3ccccc3c12`, with 36.5 µM; and `Cc1c(C)c2c(c(N)c1C#N)C(=O)N(Cc1ccc(S(N)(=O)=O)cc1)C2=O`, with greater than 100 µM.
With `CN(NC1=NCCO1)c1ccc2ccccc2c1`, the TGI is greater than 100 µM.
Regarding `COC(=O)/C=C/c1ccc(OP(=O)(O)O)c(OC)c1`, the TGI is greater than 100 µM.
On the same count and under the same terms, then `COc1cc2nc(Cl)nc(NS(=O)(=O)c3cc4ccccc4s3)c2cc1OC`, with greater than 100 µM; and `COC(=O)/C=C(\C(=O)OC)c1cc(C)c2cc(C(C)C)ccc(C)c1-2`, with greater than 100 µM; and `C[C@@H](CC(=O)OCc1ccccc1)OC1OC(COC(=O)C(C)(C)C)C(OC(=O)C(C)(C)C)C(OC(=O)C(C)(C)C)C1OC(=O)C(C)(C)C` (stereo partly drawn), with greater than 100 µM.
In turn, `CC(C)(C)OC(=O)N(CCCCNC(=O)C(F)(F)F)CCCNC(=O)C(F)(F)F` registered a TGI greater than 100 µM.
Consider `C=C1CC[C@@H](CCC2CCC3(OC2)O[C@]2(O)CC[C@@]3(C)OC2(C)C)C(C)(C)[C@H]1C/C=C1\CCOC1=O` (stereo partly drawn), for which the TGI amounted to 82.7 µM.

The subject of another experiment is HOP-62 NSCLC. The experiment in a line: growth of human tumour cells (NCI), 48 h.
Turning to `Oc1c(N2CCCCC2)cc(-c2cc(N3CCCCC3)c(O)c3ccccc23)c2ccccc12`, the TGI is greater than 100 µM.
Still for that read-out and setting: then `O=c1cc(Nc2cccc(O)c2)[nH]c(=O)[nH]1`, with greater than 100 µM; and `NCCOc1cccc(C2(N3CCCCC3)CCCCC2)c1`, with greater than 100 µM.
For the compound `COC(=O)[C@@]12OC[C@]34C([C@@H](O)C1O)[C@@]1(C)CC(=O)C(OC(=O)CC(C)C(F)(F)F)=C(C)C1C[C@H]3OC(=O)[C@H](O)[C@H]42` (stereo partly drawn), the TGI was greater than 62.5 µM.
The compound `CCCCCCCCCCCCCCCCCCNc1ccn(C2OC(COP(=O)(O)OCC3OC(n4ccc(N)nc4=O)C(O)C3O)C(O)C2O)c(=O)n1` (stereo not drawn) came in with a TGI greater than 100 µM.
The compound `CCOc1cnc(C(O)(c2ccccc2)c2ccccc2)o1` gave a TGI greater than 100 µM.
For `CC(=O)c1ccc(Nc2c3c(nc4ccccc24)CCCC3)cc1`, the TGI was greater than 47.3 µM.
Still for that read-out and setting: the same measure for `S=C1Cc2c(-c3ccccc3)cc(-c3cccc(Cl)c3)nc2-c2ccccc2N1`: 6.48 µM; for `N#Cc1c(NC(=O)C(F)(F)F)sc2c3c(=O)c4ccccc4c(=O)c=3oc3ccccc3c12`: greater than 61.9 µM.
In the case of `Cc1c(C)c2c(c(N)c1C#N)C(=O)N(Cc1ccc(S(N)(=O)=O)cc1)C2=O`, the TGI stood at 19.3 µM.
Still for that read-out and setting: then `CN(NC1=NCCO1)c1ccc2ccccc2c1`, with greater than 100 µM; and `COC(=O)/C=C/c1ccc(OP(=O)(O)O)c(OC)c1`, with greater than 100 µM; and `COc1cc2nc(Cl)nc(NS(=O)(=O)c3cc4ccccc4s3)c2cc1OC`, with greater than 100 µM.
On the same count and under the same terms, then `COC(=O)/C=C(\C(=O)OC)c1cc(C)c2cc(C(C)C)ccc(C)c1-2`, with greater than 100 µM; and `C[C@@H](CC(=O)OCc1ccccc1)OC1OC(COC(=O)C(C)(C)C)C(OC(=O)C(C)(C)C)C(OC(=O)C(C)(C)C)C1OC(=O)C(C)(C)C` (stereo partly drawn), with greater than 100 µM; and `CC(C)(C)OC(=O)N(CCCCNC(=O)C(F)(F)F)CCCNC(=O)C(F)(F)F`, with greater than 100 µM.
Same read-out and setting: then `C=C1CC[C@@H](CCC2CCC3(OC2)O[C@]2(O)CC[C@@]3(C)OC2(C)C)C(C)(C)[C@H]1C/C=C1\CCOC1=O` (stereo partly drawn), with greater than 100 µM.

In another experiment the test system is SW-620 colon. The experiment in a line: growth of human tumour cells (NCI), 48 h.
`Oc1c(N2CCCCC2)cc(-c2cc(N3CCCCC3)c(O)c3ccccc23)c2ccccc12` gave a TGI of 94.2 µM.
Turning to `O=c1cc(Nc2cccc(O)c2)[nH]c(=O)[nH]1`, the TGI was greater than 100 µM.
Still for that read-out and setting: the same measure for `NCCOc1cccc(C2(N3CCCCC3)CCCCC2)c1`: greater than 100 µM; for `COC(=O)[C@@]12OC[C@]34C([C@@H](O)C1O)[C@@]1(C)CC(=O)C(OC(=O)CC(C)C(F)(F)F)=C(C)C1C[C@H]3OC(=O)[C@H](O)[C@H]42` (stereo partly drawn): greater than 62.5 µM.
On the same count and under the same terms, the same measure for `CCCCCCCCCCCCCCCCCCNc1ccn(C2OC(COP(=O)(O)OCC3OC(n4ccc(N)nc4=O)C(O)C3O)C(O)C2O)c(=O)n1` (stereo not drawn): greater than 100 µM.
On the same count and under the same terms, then `CCOc1cnc(C(O)(c2ccccc2)c2ccccc2)o1`, with greater than 100 µM.
The compound `CC(=O)c1ccc(Nc2c3c(nc4ccccc24)CCCC3)cc1` registered a TGI greater than 78.8 µM.
For the compound `S=C1Cc2c(-c3ccccc3)cc(-c3cccc(Cl)c3)nc2-c2ccccc2N1`, the TGI worked out at 15.4 µM.
`N#Cc1c(NC(=O)C(F)(F)F)sc2c3c(=O)c4ccccc4c(=O)c=3oc3ccccc3c12`: the TGI is 67.1 µM.
`Cc1c(C)c2c(c(N)c1C#N)C(=O)N(Cc1ccc(S(N)(=O)=O)cc1)C2=O` yielded a TGI greater than 100 µM.
Same read-out and setting: then `CN(NC1=NCCO1)c1ccc2ccccc2c1`, with greater than 100 µM.
Same read-out and setting: then `COC(=O)/C=C/c1ccc(OP(=O)(O)O)c(OC)c1`, with greater than 100 µM; and `COc1cc2nc(Cl)nc(NS(=O)(=O)c3cc4ccccc4s3)c2cc1OC`, with 43.5 µM; and `COC(=O)/C=C(\C(=O)OC)c1cc(C)c2cc(C(C)C)ccc(C)c1-2`, with greater than 100 µM.
Same read-out and setting: the same measure for `C[C@@H](CC(=O)OCc1ccccc1)OC1OC(COC(=O)C(C)(C)C)C(OC(=O)C(C)(C)C)C(OC(=O)C(C)(C)C)C1OC(=O)C(C)(C)C` (stereo partly drawn): greater than 100 µM.
With `CC(C)(C)OC(=O)N(CCCCNC(=O)C(F)(F)F)CCCNC(=O)C(F)(F)F`, the TGI is greater than 100 µM.
Turning to `C=C1CC[C@@H](CCC2CCC3(OC2)O[C@]2(O)CC[C@@]3(C)OC2(C)C)C(C)(C)[C@H]1C/C=C1\CCOC1=O` (stereo partly drawn), the TGI was greater than 100 µM.
